In US11377442B2, “Small molecule agonists and antagonists of NR2F6 activity” (ZANDER THERAPEUTICS, INC., priority 2016, dated 2022):
Where two headings read alike, the source gives them in different places.

How the values were obtained:
Assay type in all cases: cell-based
[1] = biological target: T1, NR2F6 (Homo sapiens, UniProt P10588); experiment: NR2F6 agonist screening, Firefly signal cmpd/DMSO
T1 construct: expressed in transfected cells; also transient transfection
T1 sequence (P10588 1-404): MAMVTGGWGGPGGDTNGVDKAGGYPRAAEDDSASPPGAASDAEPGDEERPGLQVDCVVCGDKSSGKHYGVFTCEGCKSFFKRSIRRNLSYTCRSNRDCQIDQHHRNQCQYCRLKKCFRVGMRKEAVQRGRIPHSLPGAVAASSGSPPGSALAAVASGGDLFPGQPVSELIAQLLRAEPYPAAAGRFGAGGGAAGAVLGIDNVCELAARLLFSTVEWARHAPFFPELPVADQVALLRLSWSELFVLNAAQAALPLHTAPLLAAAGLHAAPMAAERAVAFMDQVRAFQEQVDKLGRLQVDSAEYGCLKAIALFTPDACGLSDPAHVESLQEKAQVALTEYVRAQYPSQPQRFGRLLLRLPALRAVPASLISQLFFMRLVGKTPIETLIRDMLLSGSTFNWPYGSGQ

[2] = tested on: Renilla; experiment: Renilla signal in NR2F6 agonist screening, cmpd/DMSO; details: Renilla, F4
[3] = tested on: HEK293 pGL4; experiment: Firefly_pGL signal, cmpd/DMSO (pGL4 control cells); details: Homo sapiens
[4] = biological target: T2, NR2F6 LBD (Homo sapiens, UniProt P10588); experiment: NR2F6 LBD transient transfection; details: LBD
T2 construct: expressed in transfected cells
T2 sequence (P10588 165-393 limits assumed): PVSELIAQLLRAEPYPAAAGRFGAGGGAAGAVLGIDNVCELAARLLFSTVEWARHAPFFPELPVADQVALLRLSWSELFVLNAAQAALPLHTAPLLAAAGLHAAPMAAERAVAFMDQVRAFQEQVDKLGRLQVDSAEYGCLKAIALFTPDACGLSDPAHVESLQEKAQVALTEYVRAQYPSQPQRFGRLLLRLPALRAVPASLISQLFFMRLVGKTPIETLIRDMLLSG
Outline: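 LBD-transfected cells treated at 40, 10, 2 and 0.5 μM (4 replicates); cytotoxicity measured in parallel, normalized to DMSO (0%) and zero signal (100%). Higher concentrations excluded where signal loss reflected toxicity.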

[5] = read-out: Renilla, F4, cmpd/DMSO (mean)
[6] = 1% FBS, read-out: Renilla, F4, 1% FBS, cmpd/DMSO (mean)
[7] = 10% FBS, read-out: Renilla, F4, 10% FBS, cmpd/DMSO (mean)

Firefly F4, cmpd/DMSO (mean) ([1]; 0.5 uM): 0.9 | Firefly F4, cmpd/DMSO (mean) ([1]; 2 uM): 2.0 | Firefly F4, cmpd/DMSO (mean) ([1]; 10 uM): 5.3 | Firefly F4, cmpd/DMSO (mean) ([1]; 40 uM): 0.6 | F4, Firefly/Renilla for S/B(F4) > 3 ([1]; 1% FBS, 10 uM): 2.5 | Firefly, F4/pGL4 for S/B(F4) > 3 ([1]; 1% FBS, 10 uM): 1.9 | F4, Firefly/Renilla for S/B(F4) > 3 ([1]; 10% FBS, 10 uM): 2.7 | Firefly, F4/pGL4 for S/B(F4) > 3 ([1]; 10% FBS, 10 uM): 3.3 | Firefly, F4, 1% FBS, cmpd/DMSO (mean) ([1]; 1% FBS, 0.5 uM): 1.5 | Firefly, F4, 1% FBS, cmpd/DMSO (mean) ([1]; 1% FBS, 2 uM): 1.8 | Firefly, F4, 1% FBS, cmpd/DMSO (mean) ([1]; 1% FBS, 10 uM): 4.4 | Firefly, F4, 1% FBS, cmpd/DMSO (mean) ([1]; 1% FBS, 40 uM): 0.2 | Firefly, F4, 10% FBS, cmpd/DMSO (mean) ([1]; 10% FBS, 0.5 uM): 1.5 | Firefly, F4, 10% FBS, cmpd/DMSO (mean) ([1]; 10% FBS, 2 uM): 1.1 | Firefly, F4, 10% FBS, cmpd/DMSO (mean) ([1]; 10% FBS, 10 uM): 7.3 | Firefly, F4, 10% FBS, cmpd/DMSO (mean) ([1]; 10% FBS, 40 uM): 1.6 | Firefly LBD, cmpd/DMSO (mean) ([4]; 0.5 uM): 1.0 | Firefly LBD, cmpd/DMSO (mean) ([4]; 2 uM): 1.5 | Firefly LBD, cmpd/DMSO (mean) ([4]; 10 uM): 3.4 | Firefly LBD, cmpd/DMSO (mean) ([4]; 40 uM): 0.5
Structure (SMILES): CCCCN[C@H]1CS(=O)(=O)C[C@@H]1S(=O)(=O)c1ccc(Cl)cc1 [Compound D119]
fold induction at 0.5 µM [2, 5]: 1.2 | fold induction at 2 µM [2, 5]: 1.2 | fold induction at 10 µM [2, 5]: 1.6 | fold induction at 40 µM [2, 5]: 0.2 | fold induction at 0.5 µM [2, 6]: 1.1 | fold induction at 2 µM [2, 6]: 1.1 | fold induction at 10 µM [2, 6]: 1.8 | fold induction at 40 µM [2, 6]: 0.4 | fold induction at 0.5 µM [2, 7]: 1.4 | fold induction at 2 µM [2, 7]: 1.5 | fold induction at 10 µM [2, 7]: 2.7 | fold induction at 40 µM [2, 7]: 1.3 | fold induction at 0.5 µM ([3]; HEK293, 0.5 uM, pGL4, read-out: Firefly pGL4, cmpd/DMSO (mean)): 1.1 | fold induction at 2 µM ([3]; HEK293, 2 uM, pGL4, read-out: Firefly pGL4, cmpd/DMSO (mean)): 1.5 | fold induction at 10 µM ([3]; HEK293, 10 uM, pGL4, read-out: Firefly pGL4, cmpd/DMSO (mean)): 3.9 | fold induction at 40 µM ([3]; HEK293, 40 uM, pGL4, read-out: Firefly pGL4, cmpd/DMSO (mean)): 0.6 | fold induction at 0.5 µM ([3]; HEK293, pGL4, 1% FBS, 0.5 uM, read-out: Firefly, pGL4, 1% FBS, cmpd/DMSO (mean)): 1.2 | fold induction at 2 µM ([3]; HEK293, pGL4, 1% FBS, 2 uM, read-out: Firefly, pGL4, 1% FBS, cmpd/DMSO (mean)): 1.4 | fold induction at 10 µM ([3]; HEK293, pGL4, 1% FBS, 10 uM, read-out: Firefly, pGL4, 1% FBS, cmpd/DMSO (mean)): 2.4 | fold induction at 40 µM ([3]; HEK293, pGL4, 1% FBS, 40 uM, read-out: Firefly, pGL4, 1% FBS, cmpd/DMSO (mean)): 0.7 | fold induction at 0.5 µM ([3]; HEK293, pGL4, 10% FBS, 0.5 uM, read-out: Firefly, pGL4, 10% FBS, cmpd/DMSO (mean)): 1.1 | fold induction at 2 µM ([3]; HEK293, pGL4, 10% FBS, 2 uM, read-out: Firefly, pGL4, 10% FBS, cmpd/DMSO (mean)): 1.2 | fold induction at 10 µM ([3]; HEK293, pGL4, 10% FBS, 10 uM, read-out: Firefly, pGL4, 10% FBS, cmpd/DMSO (mean)): 2.2 | fold induction at 40 µM ([3]; HEK293, pGL4, 10% FBS, 40 uM, read-out: Firefly, pGL4, 10% FBS, cmpd/DMSO (mean)): 0.5
